Experimental data as given in ChEMBL document CHEMBL4825668, “Discovery of Novel Pyrimidine-Based Capsid Assembly Modulators as Potent Anti-HBV Agents” (J Med Chem, 2021).
Activity calls are given as the source filed them. The rule behind the calls is not given here.

Tests used:
Hepatitis B virus [1] = assay: Antiviral activity against Human hepatitis B virus in Huh-7 cells assessed as reduction in intracellular viral DNA level incubated for 36 hrs by qPCR analysis; type: functional, organism-based; settings: Huh-7, 36 h
[2] = Metabolic stability in mouse liver microsomes assessed as compound remaining at […] incubated for 30 mins by LC/MS/MS analysis; type: ADME, Microsome; settings: read-out: Stabilty
[3] = Metabolic stability in rat liver microsomes assessed as compound remaining at […] incubated for 30 mins by LC/MS/MS analysis; type: ADME, Microsome; settings: read-out: Stabilty
[4] = Metabolic stability in human liver microsomes assessed as compound remaining at […] incubated for 30 mins by LC/MS/MS analysis; type: ADME, Microsome; settings: read-out: Stabilty
[5] = Permeability of the compound at pH 7.4 by PAMPA; type: ADME
CYP1A2 = target: T1, CYP1A2 (Homo sapiens, UniProt P05177); assay: Inhibition of human recombinant CYP1A2 using alpha-naphthoflavone […] at 10 uM by fluorometric assay; type: ADME
T1 sequence (P05177 whole entry): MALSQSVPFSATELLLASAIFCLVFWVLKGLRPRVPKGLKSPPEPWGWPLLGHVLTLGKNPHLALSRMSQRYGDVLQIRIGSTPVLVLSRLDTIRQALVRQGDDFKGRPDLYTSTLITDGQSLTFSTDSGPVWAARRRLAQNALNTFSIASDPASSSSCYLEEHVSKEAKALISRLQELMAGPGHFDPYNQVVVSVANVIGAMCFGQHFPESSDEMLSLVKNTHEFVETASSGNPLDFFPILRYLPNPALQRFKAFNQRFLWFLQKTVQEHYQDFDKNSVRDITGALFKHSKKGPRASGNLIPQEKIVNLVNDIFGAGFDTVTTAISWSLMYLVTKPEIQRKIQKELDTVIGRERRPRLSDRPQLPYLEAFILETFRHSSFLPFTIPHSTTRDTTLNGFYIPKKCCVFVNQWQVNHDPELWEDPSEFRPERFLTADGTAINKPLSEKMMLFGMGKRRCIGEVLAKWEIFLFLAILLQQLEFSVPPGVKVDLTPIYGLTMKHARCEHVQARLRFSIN

CYP2C9 = CYP2C9 (Homo sapiens, UniProt P11712); assay: Inhibition of human recombinant CYP2C9 using sulfaphenazole […] at 10 uM by fluorometric assay; type: ADME
CYP2C19 = CYP2C19 (Homo sapiens, UniProt P33261); assay: Inhibition of human recombinant CYP2C19 using amitriptyline […] at 10 uM by fluorometric assay; type: ADME
CYP2D6 = CYP2D6 (Homo sapiens, UniProt P10635); assay: Inhibition of human recombinant CYP2D6 using quinidine […] at 10 uM by fluorometric assay; type: ADME
CYP3A4 = CYP3A4 (Homo sapiens, UniProt P08684); assay: Inhibition of human recombinant CYP3A4 using ketoconazole […] at 10 uM by fluorometric assay; type: ADME
hERG (KCNH2) = hERG (KCNH2) (Homo sapiens, UniProt Q12809); assay: Inhibition of human ERG at 40 uM incubated for 2 to 3 hrs by ligand binding assay
[6] = Mutagenicity in Salmonella typhimurium in presence of S9 fraction by Ames test; type: toxicity, subcellular; settings: salmonella enterica subsp. enterica serovar typhimurium
[7] = AUC(infinity) in ICR mouse at 10 mg/kg, iv measured after 1440 mins by HPLC analysis; type: ADME, organism-based; design: route intravenous, time 1440 min, dose 10 mg/kg; settings: in vivo
[8] = AUClast in ICR mouse at 10 mg/kg, iv measured after 1440 mins by HPLC analysis; type: ADME, organism-based; design: route intravenous, dose 10 mg/kg, time 1440 min; settings: in vivo
[9] = Clearance in ICR mouse at 10 mg/kg, iv measured after 1440 mins by HPLC analysis; type: ADME, organism-based; settings: in vivo
[10] = Half life in ICR mouse at 10 mg/kg, iv measured after 1440 mins by HPLC analysis; type: ADME, organism-based; settings: in vivo
[11] = Volume of distribution at steady state in ICR mouse at 10 mg/kg, iv measured after 1440 mins by HPLC analysis; type: ADME, organism-based; settings: in vivo, read-out: Vdss
[12] = AUC(infinity) in ICR mouse at 10 mg/kg, po measured after 1440 mins by HPLC analysis; type: ADME, organism-based; design: route oral, dose 10 mg/kg, time 1440 min; settings: in vivo
[13] = AUClast in ICR mouse at 10 mg/kg, po measured after 1440 mins by HPLC analysis; type: ADME, organism-based; design: route oral, time 1440 min, dose 10 mg/kg; settings: in vivo
[14] = Cmax in ICR mouse at 10 mg/kg, po measured after 1440 mins by HPLC analysis; type: ADME, organism-based; design: route oral, dose 10 mg/kg, time 1440 min; settings: in vivo
[15] = Half life in ICR mouse at 10 mg/kg, po measured after 1440 mins by HPLC analysis; type: ADME, organism-based; settings: in vivo
[16] = Tmax in ICR mouse at 10 mg/kg, po measured after 1440 mins by HPLC analysis; type: ADME, organism-based; settings: in vivo
[17] = Oral bioavailability in ICR mouse at 10 mg/kg measured after 1440 mins by HPLC analysis; type: ADME, organism-based; settings: in vivo
Hepatitis B virus [18] = assay: Inhibition of HBV recombinant Cp149 expressed in Escherichia coli BL21 (DE3) assessed as inhibition of capsid assembly at 1 uM incubated for 1 hr by immune blotting analysis relative to control
Hepatitis B virus [19] = assay: Inhibition of HBV recombinant Cp149 expressed in Escherichia coli BL21 (DE3) assessed as inhibition of capsid assembly at 0.1 uM incubated for 1 hr by immune blotting analysis relative to control
Hepatitis B virus [20] = assay: Antiviral activity against Human hepatitis B virus in Huh-7 cells assessed as decrease in viral DNA level incubated for 36 hrs by qPCR analysis; type: functional, organism-based
Hepatitis B virus [21] = assay: Antiviral activity against Human hepatitis B virus in Huh-7 cells assessed as decrease in intracellular viral DNA accumulation incubated for 36 hrs by qPCR analysis; type: functional, organism-based
Hepatitis B virus [22] = assay: Antiviral activity against Human hepatitis B virus in Huh-7 cells assessed as reduction in HBsAg level by ELISA; type: functional, organism-based
Huh-7 [23] = assay: Inhibition of HBV recombinant Cp149 expressed in Huh-7 cells assessed as assembled HBV core protein fraction at 1 uM incubated for 1 hr by sucrose gradient analysis; type: cell-based; settings: Hepatitis B virus
Huh-7 [24] = assay: Inhibition of HBV recombinant Cp149 expressed in Huh-7 cells assessed as inhibition of secretion of particles containing viral DNA at 1 uM incubated for 1 hr by immunoblot analysis; type: cell-based; settings: Hepatitis B virus
Hepatitis B virus [25] = assay: Antiviral activity against Human hepatitis B virus infected in humanized liver uPA SCID mouse model assessed as decrease in serum viral DNA at 40 mg/kg, po daily measured every week by qPCR analysis; type: functional, organism-based
Hepatitis B virus [26] = assay: Antiviral activity against Human hepatitis B virus infected in humanized liver uPA SCID mouse model assessed as change in serum HBsAg at 40 mg/kg, po daily measured every week by ELISA; type: functional, organism-based
Hepatitis B virus [27] = assay: Antiviral activity against Human hepatitis B virus infected in humanized liver uPA SCID mouse model assessed as change in serum HBeAg at 40 mg/kg, po daily measured every week by ELISA; type: functional, organism-based
Hepatitis B virus [28] = assay: Antiviral activity against Human hepatitis B virus infected in humanized liver uPA SCID mouse model assessed as reduction in HBV core protein at 40 mg/kg, po daily measured after 35 days by immunohistochemical analysis; type: functional, organism-based; settings: time 35.0 day
Hepatitis B virus [29] = assay: Antiviral activity against Human hepatitis B virus infected in hydrodynamic injection C57BL/6 mouse model assessed as reduction in viral DNA in serum up to 120 mg/kg, po daily measured after 5 days by qPCR analysis; type: functional, organism-based; settings: dose mg/kg <=120, time 5.0 day
Hepatitis B virus [30] = assay: Antiviral activity against Human hepatitis B virus infected in hydrodynamic injection C57BL/6 mouse model assessed as reduction in serum HBsAg up to 120 mg/kg, po daily by ELISA; type: functional, organism-based; settings: dose mg/kg <=120
[31] = AUC(infinity) in ICR mouse at 5 mg/kg, iv measured after 1440 mins by HPLC analysis; type: ADME, organism-based; design: route intravenous, time 1440 min, dose 5 mg/kg; settings: in vivo
[32] = AUClast in ICR mouse at 5 mg/kg, iv measured after 1440 mins by HPLC analysis; type: ADME, organism-based; design: route intravenous, dose 5 mg/kg, time 1440 min; settings: in vivo
[33] = Clearance in ICR mouse at 5 mg/kg, iv measured after 1440 mins by HPLC analysis; type: ADME, organism-based; settings: in vivo
[34] = Cmax in ICR mouse at 5 mg/kg, iv measured after 1440 mins by HPLC analysis; type: ADME, organism-based; design: route intravenous, dose 5 mg/kg, time 1440 min; settings: in vivo
[35] = Half life in ICR mouse at 5 mg/kg, iv measured after 1440 mins by HPLC analysis; type: ADME, organism-based; settings: in vivo
[36] = Volume of distribution at steady state in ICR mouse at 5 mg/kg, iv measured after 1440 mins by HPLC analysis; type: ADME, organism-based; settings: in vivo, read-out: Vdss
[37] = target: Voltage-gated inwardly rectifying potassium channel KCNH2 (Homo sapiens, UniProt Q12809); assay: Inhibition of human ERG expressed in HEK cells at -80 mV holding potential by patch clamp assay relative to control; type: cell-based
[38] = Toxicity in BALB/c mouse assessed as changes in blood up to 400 mg/kg, po for 2 weeks; type: organism-based; settings: in vivo, 336 h
[39] = Toxicity in BALB/c mouse assessed as changes in urine up to 400 mg/kg, po for 2 weeks; type: organism-based; settings: in vivo, 336 h

Chain of CYP2C19 (P33261 whole entry): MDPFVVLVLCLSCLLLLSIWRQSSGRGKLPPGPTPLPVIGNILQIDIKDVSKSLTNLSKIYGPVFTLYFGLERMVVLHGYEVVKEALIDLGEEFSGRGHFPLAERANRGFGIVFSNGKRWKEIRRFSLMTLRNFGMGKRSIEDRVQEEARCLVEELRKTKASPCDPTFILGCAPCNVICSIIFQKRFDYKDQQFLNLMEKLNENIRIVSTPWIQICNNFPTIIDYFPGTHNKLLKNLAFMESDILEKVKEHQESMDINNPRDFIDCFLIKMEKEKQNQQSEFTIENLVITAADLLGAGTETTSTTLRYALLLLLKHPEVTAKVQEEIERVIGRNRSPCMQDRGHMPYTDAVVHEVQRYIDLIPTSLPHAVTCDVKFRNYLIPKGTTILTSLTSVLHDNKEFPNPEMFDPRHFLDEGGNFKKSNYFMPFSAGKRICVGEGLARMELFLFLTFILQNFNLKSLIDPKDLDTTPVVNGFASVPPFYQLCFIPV
Chain of CYP3A4 (P08684 whole entry): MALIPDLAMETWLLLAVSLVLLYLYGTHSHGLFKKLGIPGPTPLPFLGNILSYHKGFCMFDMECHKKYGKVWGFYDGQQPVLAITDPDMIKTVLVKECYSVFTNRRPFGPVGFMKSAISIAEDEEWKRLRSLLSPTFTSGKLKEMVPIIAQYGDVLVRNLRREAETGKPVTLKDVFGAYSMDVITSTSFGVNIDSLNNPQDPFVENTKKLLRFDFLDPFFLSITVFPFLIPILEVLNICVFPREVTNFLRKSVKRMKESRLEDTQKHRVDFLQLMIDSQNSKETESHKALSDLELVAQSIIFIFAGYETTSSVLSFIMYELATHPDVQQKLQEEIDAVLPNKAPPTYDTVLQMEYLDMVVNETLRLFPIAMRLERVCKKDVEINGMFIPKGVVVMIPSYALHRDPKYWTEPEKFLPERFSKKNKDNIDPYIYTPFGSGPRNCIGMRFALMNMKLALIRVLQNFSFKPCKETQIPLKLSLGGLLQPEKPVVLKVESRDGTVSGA
Chain of CYP2D6 (P10635 whole entry): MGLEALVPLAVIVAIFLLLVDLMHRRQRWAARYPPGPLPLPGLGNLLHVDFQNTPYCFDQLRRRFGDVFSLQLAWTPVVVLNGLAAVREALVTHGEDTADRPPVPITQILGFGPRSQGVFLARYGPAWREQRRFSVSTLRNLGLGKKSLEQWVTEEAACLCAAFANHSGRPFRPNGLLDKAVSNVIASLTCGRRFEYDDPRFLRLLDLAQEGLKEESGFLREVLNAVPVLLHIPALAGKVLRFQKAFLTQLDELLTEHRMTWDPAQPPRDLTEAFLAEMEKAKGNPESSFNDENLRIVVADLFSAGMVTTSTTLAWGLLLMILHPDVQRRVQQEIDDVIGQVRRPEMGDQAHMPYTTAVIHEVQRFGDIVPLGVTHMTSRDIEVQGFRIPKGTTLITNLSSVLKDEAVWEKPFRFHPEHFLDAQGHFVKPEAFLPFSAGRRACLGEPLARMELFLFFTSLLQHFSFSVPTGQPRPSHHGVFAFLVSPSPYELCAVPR
Chain of hERG (KCNH2) (Q12809 whole entry): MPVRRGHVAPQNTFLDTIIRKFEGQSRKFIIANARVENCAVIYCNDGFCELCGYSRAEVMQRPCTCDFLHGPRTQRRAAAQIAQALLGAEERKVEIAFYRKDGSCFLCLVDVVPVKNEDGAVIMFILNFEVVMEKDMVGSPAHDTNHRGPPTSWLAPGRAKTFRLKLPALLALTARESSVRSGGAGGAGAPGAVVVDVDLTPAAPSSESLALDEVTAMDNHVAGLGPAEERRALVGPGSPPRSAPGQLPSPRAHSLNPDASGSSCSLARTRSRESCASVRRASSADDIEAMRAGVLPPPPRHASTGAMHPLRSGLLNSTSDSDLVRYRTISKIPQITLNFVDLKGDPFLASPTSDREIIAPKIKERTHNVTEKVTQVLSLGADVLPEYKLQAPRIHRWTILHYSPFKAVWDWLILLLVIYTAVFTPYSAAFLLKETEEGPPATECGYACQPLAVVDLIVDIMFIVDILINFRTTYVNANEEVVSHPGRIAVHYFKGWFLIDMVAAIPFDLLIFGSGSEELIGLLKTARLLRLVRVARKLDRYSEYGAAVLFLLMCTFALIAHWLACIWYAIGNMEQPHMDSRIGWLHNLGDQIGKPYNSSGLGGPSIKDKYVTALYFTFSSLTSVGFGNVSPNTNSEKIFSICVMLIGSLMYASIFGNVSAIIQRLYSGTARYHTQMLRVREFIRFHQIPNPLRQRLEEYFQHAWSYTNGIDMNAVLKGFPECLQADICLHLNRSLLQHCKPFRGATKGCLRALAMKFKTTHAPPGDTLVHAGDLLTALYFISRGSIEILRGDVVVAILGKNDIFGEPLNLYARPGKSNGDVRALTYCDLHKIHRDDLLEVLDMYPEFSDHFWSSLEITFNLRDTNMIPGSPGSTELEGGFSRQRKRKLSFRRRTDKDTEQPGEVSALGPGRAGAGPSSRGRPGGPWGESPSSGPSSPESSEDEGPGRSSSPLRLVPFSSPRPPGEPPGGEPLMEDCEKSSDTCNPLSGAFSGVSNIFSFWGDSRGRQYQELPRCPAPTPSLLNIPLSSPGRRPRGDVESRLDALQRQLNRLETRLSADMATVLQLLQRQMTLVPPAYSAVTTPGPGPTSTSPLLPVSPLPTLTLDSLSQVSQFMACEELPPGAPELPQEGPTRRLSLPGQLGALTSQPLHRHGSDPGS
Chain of CYP2C9 (P11712 whole entry): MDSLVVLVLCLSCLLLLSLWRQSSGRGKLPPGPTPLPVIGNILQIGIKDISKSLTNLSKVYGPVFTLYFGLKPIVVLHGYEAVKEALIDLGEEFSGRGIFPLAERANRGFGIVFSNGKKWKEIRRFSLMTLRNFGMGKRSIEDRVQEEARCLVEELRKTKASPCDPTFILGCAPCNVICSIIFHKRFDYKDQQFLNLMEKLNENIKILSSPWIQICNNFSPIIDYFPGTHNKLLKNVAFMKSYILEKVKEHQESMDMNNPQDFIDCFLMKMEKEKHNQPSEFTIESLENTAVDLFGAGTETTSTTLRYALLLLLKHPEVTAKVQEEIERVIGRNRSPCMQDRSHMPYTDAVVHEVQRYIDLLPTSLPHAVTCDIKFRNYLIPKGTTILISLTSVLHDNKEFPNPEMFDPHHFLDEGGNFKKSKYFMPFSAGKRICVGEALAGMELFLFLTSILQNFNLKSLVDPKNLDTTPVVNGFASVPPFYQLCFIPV
Chain of Voltage-gated inwardly rectifying potassium channel KCNH2 (Q12809 whole entry): as the sequence (Q12809 whole entry) above

SMILES | IC50 (Hepatitis B virus [1]) [nM] | remaining at 0.5 h [2] [%] | remaining at 0.5 h [3] [%] | remaining at 0.5 h [4] [%] | log(permeability) [5] | inhibition at 10 µM (CYP1A2) [%] | inhibition at 10 µM (CYP2C9) [%] | inhibition at 10 µM (CYP2C19) [%] | inhibition at 10 µM (CYP2D6) [%] | inhibition at 10 µM (CYP3A4) [%] | inhibition at 40 µM (hERG (KCNH2)) [%] | Activity [6] | AUC(0-inf) [12] [ng·h/mL] | AUC(0-t) at 24 h [13] [ng·h/mL] | Cmax [14] [ng/mL] | half-life [15] [h] | Tmax [16] [h] | bioavailability [17] [%] | other results
CS(=O)(=O)c1nc(Nc2ccc(F)c(Cl)c2)cc(N2CCNCC2)n1 | 189 | > 99 | > 99 | > 99 | -5.37 | 57.4 | 64.8 | 41.2 | 45.2 | 60.2 | 14 | Non-Toxic |  |  |  |  |  |  | 
CS(=O)(=O)c1nc(Nc2ccc(F)c(Cl)c2)cc(N2CCNCC2)n1.Cl |  |  |  |  |  |  |  |  |  |  |  |  | 107 | 131 | 25 | 7.8 | 0.5 | 4.6 | AUC(0-inf) [7]: 2330 ng·h/mL; AUC(0-t) at 24 h [8]: 2370 ng·h/mL; clearance [9]: 70.8 mL/min/kg; half-life [10]: 3.3 h; Vd [11]: 10.9 L/kg
CS(=O)(=O)c1nc(Nc2ccc(F)c(Cl)c2)cc(NC2CCC(N)CC2)n1 (stereo not drawn) [listing 1 of 2 here] |  |  |  |  |  |  |  |  |  |  |  |  |  |  |  |  |  |  | inhibition (Hepatitis B virus [18]): 99%; inhibition (Hepatitis B virus [19]): 52%; Activity (Hepatitis B virus [20]): Active; Activity (Hepatitis B virus [21]): Active; Activity (Hepatitis B virus [22]): inactive; inhibition (Huh-7 [23]): Active; inhibition (Huh-7 [24]): Active; Activity (Hepatitis B virus [25]): Active; Activity (Hepatitis B virus [26]): Active; Activity (Hepatitis B virus [27]): Active; Activity (Hepatitis B virus [28]): Active; Activity (Hepatitis B virus [29]): Dose-Dependent Effect; Activity (Hepatitis B virus [30]): Active
CS(=O)(=O)c1nc(Nc2ccc(F)c(Cl)c2)cc(NC2CCC(N)CC2)n1.Cl (stereo not drawn) |  |  |  |  |  |  |  |  |  |  |  |  | 270 | 203 | 28.3 | 6.3 | 1.8 | 4.8 | AUC(0-inf) [31]: 2410 ng·h/mL; AUC(0-t) at 24 h [32]: 2110 ng·h/mL; clearance [33]: 36.7 mL/min/kg; Cmax [34]: 9780 ng/mL; half-life [35]: 4.8 h; Vd [36]: 5.4 L/kg
CS(=O)(=O)c1nc(Nc2ccc(F)c(Cl)c2)cc(NC2CCC(N)CC2)n1 (stereo not drawn) [listing 2 of 2 here] | 181 | 79.6 | 82 | 81.7 | -5.15 | 37.2 | 51.8 | 71.4 | 21.7 | 44 | 76.6 | Non-Toxic |  |  |  |  |  |  | IC50 [37]: 19800 nM; Activity [38]: Non-Toxic; Activity [39]: Non-Toxic
